Active and inactive are the calls of the source. The rule behind the calls is not given here.
Assays:
Staphylococcus aureus [1] = test: Photodynamic antimicrobial activity against methicillin resistant Staphylococcus aureus ATCC43300 preincubated for 15 mins followed by irradiation with 90 mW/cm^2 light for 15 mins and measured after 24 hrs; type: functional; details: ATCC43300, light or radiation study, time 24.5 hrs
Candida albicans [2] = test: Drug uptake in Candida albicans ATCC 14053 at 10 uM incubated at 37 degree for 15 mins by UV-vis absorption spectra analysis relative to control; type: ADME, organism-based; details: 0.25 h
Escherichia coli [3] = test: Photodynamic antimicrobial activity against Escherichia coli ATCC25922 assessed as decrease in viable cell log count at 2.5 uM preincubated for 15 mins followed by light irradiation at 81 J/cm^2 dose for 15 mins and measured after 36 hrs; type: functional, ATCC 25922; details: time 36.5 hrs
Staphylococcus aureus [4] = test: Photodynamic antimicrobial activity against Staphylococcus aureus ATCC 29213 preincubated for 15 mins followed by irradiation with 90 mW/cm^2 light for 15 mins and measured after 24 hrs; type: functional; details: ATCC 29213, light or radiation study, time 24.5 hrs
Escherichia coli [5] = test: Photodynamic antimicrobial activity against Escherichia coli ATCC 25922 preincubated for 15 mins followed by irradiation with 90 mW/cm^2 light for 15 mins and measured after 24 hrs; type: functional; details: ATCC 25922, light or radiation study, time 24.5 hrs
Escherichia coli [6] = test: Photodynamic antimicrobial activity against Escherichia coli ATCC25922 assessed as decrease in viable cell log count at 1.25 uM preincubated for 15 mins followed by light irradiation at 81 J/cm^2 dose for 15 mins and measured after 36 hrs; type: functional, ATCC 25922; details: time 36.5 hrs
Candida albicans [7] = test: Photodynamic antimicrobial activity against Candida albicans ATCC 14053 preincubated for 15 mins followed by irradiation with 90 mW/cm^2 light for 15 mins and measured after 24 hrs; type: functional; details: ATCC 14053, light or radiation study, time 24.5 hrs
[8] = Drug uptake in Staphylococcus aureus ATCC 29213 at 10 uM incubated at 37 degree for 15 mins by UV-vis absorption spectra analysis relative to control; type: ADME; details: 0.25 h
[9] = Drug uptake in Escherichia coli ATCC 25922 at 10 uM incubated at 37 degree for 15 mins by UV-vis absorption spectra analysis relative to control; type: ADME; details: 0.25 h
Escherichia coli [10] = test: Photodynamic antimicrobial activity against Escherichia coli ATCC25922 assessed as decrease in viable cell log count at 5 uM preincubated for 15 mins followed by light irradiation at 81 J/cm^2 dose for 15 mins and measured after 36 hrs; type: functional, ATCC 25922; details: time 36.5 hrs
Candida albicans [11] = test: Photodynamic antimicrobial activity against Candida albicans ATCC14053 assessed as loss of microbial viability at 2 uM preincubated for 15 mins followed by light irradiation at 81 J/cm^2 dose for 15 mins and measured after 36 hrs; type: functional; details: time 36.5 hrs
Escherichia coli [12] = test: Photodynamic antimicrobial activity against Escherichia coli ATCC25922 assessed as loss of microbial viability at 2 uM preincubated for 15 mins followed by light irradiation at 81 J/cm^2 dose for 15 mins and measured after 36 hrs; type: functional, ATCC 25922; details: time 36.5 hrs
[13] = Octanol-water partition coefficient, logP of the compound at 2 uM after 20 hrs by HPLC analysis; type: physicochemical
Staphylococcus aureus [14] = test: Photodynamic antimicrobial activity against Staphylococcus aureus […] assessed as loss of microbial viability at 2 uM preincubated for 15 mins followed by light irradiation at 81 J/cm^2 dose for 15 mins and measured after 36 hrs; type: functional; details: time 36.5 hrs
Staphylococcus aureus [15] = test: Photodynamic antimicrobial activity against methicillin resistant Staphylococcus aureus ATCC43300 assessed as loss of microbial viability at 2 uM preincubated for 15 mins followed by light irradiation at 81 J/cm^2 dose for 15 mins and measured after 36 hrs; type: functional; details: time 36.5 hrs
Escherichia coli [16] = test: Photodynamic antimicrobial activity against Escherichia coli ATCC25922 assessed as bacterial clearance ratio at 1.25 uM preincubated for 15 mins in dark followed by irradiation with 81 J/cm^2 light for 20 to 25 mins and measured after 36 hrs; type: functional, ATCC 25922; details: time 2195-2200 min
Candida albicans [17] = test: Photodynamic antimicrobial activity against Candida albicans ATCC14053 assessed as reduction in viable cells log count at 0.5 uM preincubated in dark for 15 mins followed by light irradiation at 81 J/cm^2 dose for 15 mins and measured after 36 hrs; type: functional; details: time 36.5 hrs
HaCaT [18] = test: Dark toxicity against human HaCat cells assessed as reduction in cell survival upto 20 uM incubated under dark condition for 15 mins by CCK-8 assay; type: cell-based; details: 0.25 h
Cell membrane [19] = test: Induction of cell membrane disruption in Staphylococcus aureus ATCC29213 at 2.5 uM preincubated for 15 mins followed by irradiated with 81 J/cm^2 light for 15 mins by DAPI staining based confocal laser scanning microscopic analysis; details: time 30.0 min
Escherichia coli [20] = test: Induction of morphological changes in Escherichia coli ATCC 25922 at 10 uM preincubated for 15 mins followed by light irradiation at 90 mW/cm2 for 15 mins by SEM analysis; type: functional, organism-based; details: time 30.0 min
Staphylococcus aureus [21] = test: Induction of morphological changes in Staphylococcus aureus ATCC 29213 at 10 uM preincubated for 15 mins followed by light irradiation at 90 mW/cm2 for 15 mins by SEM analysis; type: functional, organism-based; details: time 30.0 min
Staphylococcus aureus [22] = test: Photodynamic antimicrobial activity against Staphylococcus aureus […] assessed as decrease in viable cell log count at 5 uM preincubated for 15 mins followed by light irradiation at 81 J/cm^2 dose for 15 mins and measured after 36 hrs; type: functional; details: time 36.5 hrs
Candida albicans [23] = test: Induction of ROS generation in Candida albicans ATCC14053 at 0.16 to 20 uM preincubated for 15 mins followed by irradiation with 81 J/cm^2 light for 15 mins by DCFH-DA staining-based fluorescence microscopy analysis; type: functional, organism-based; details: dose 0.16-20 µM, time 30.0 min
Staphylococcus aureus [24] = test: In vivo antibacterial activity against Staphylococcus aureus ATCC29213 infected in Swiss albino mouse assessed as reduction in neutophils count at 10 mg treated on day 2 post infection and followed by irradiation with 81 J/cm^2 light for 15 mins and measured every 3 days upto 8 days by H and E staining analysis; type: functional, organism-based; details: time 8.0 day
HaCaT [25] = test: Cytotoxicity against human HaCat Cells assessed as reduction in cell survival preincubated for 15 mins followed by irradiated with light at 81 J/cm^2 for 15 mins and measured after 24 hrs by CCK-8 assay; type: cell-based; details: light or radiation study
Escherichia coli [26] = test: Photodynamic antimicrobial activity against Escherichia coli ATCC25922 assessed as bacterial clearance ratio at 1.25 uM preincubated for 15 mins in dark followed by irradiation with 27 J/cm^2 light for 5 mins and measured after 36 hrs; type: functional, ATCC 25922; details: time 2180 min, 36.33 h
Cell membrane [27] = test: Induction of cell membrane disruption in Candida albicans ATCC14053 at 2.5 uM preincubated for 15 mins followed by irradiated with 81 J/cm^2 light for 15 mins by DAPI staining based confocal laser scanning microscopic analysis; details: time 30.0 min
Candida albicans [28] = test: Photodynamic antimicrobial activity against Candida albicans ATCC14053 assessed as reduction in viable cells log count at 1 uM preincubated in dark for 15 mins followed by light irradiation at 81 J/cm^2 dose for 15 mins and measured after 36 hrs; type: functional; details: time 36.5 hrs
Cell membrane [29] = test: Induction of cell membrane disruption in Escherichia coli ATCC25922 at 5 uM preincubated for 15 mins followed by irradiated with 81 J/cm^2 light for 15 mins by DAPI staining based confocal laser scanning microscopic analysis; details: Escherichia coli ATCC 25922, time 30.0 min
Staphylococcus aureus [30] = test: Photodynamic antimicrobial activity against methicillin resistant Staphylococcus aureus ATCC43300 assessed as log count reduction in viable cells at 0.625 uM preincubated in dark for 15 mins followed by light irradiation at 81 J/cm^2 dose for 15 mins and measured after 36 hrs; type: functional; details: time 36.5 hrs
Staphylococcus aureus [31] = test: Photodynamic antimicrobial activity against methicillin resistant Staphylococcus aureus ATCC43300 assessed as log count reduction in viable cells at 1.25 uM incubated in dark for 15 mins followed by light irradiation at 81 J/cm^2 dose for 15 mins and measured after 36 hrs; type: functional; details: time 36.5 hrs
Escherichia coli [32] = test: Photodynamic antimicrobial activity against Escherichia coli ATCC25922 assessed as bacterial clearance ratio at 1.25 uM preincubated for 15 mins in dark followed by irradiation with 81 J/cm^2 light for 15 mins and measured after 36 hrs; type: functional, ATCC 25922; details: time 2190 min, 36.5 h
Candida albicans [33] = test: Induction of morphological changes in Candida albicans ATCC 14053 at 10 uM preincubated for 15 mins followed by light irradiation at 90 mW/cm2 for 15 mins by SEM analysis; type: functional, organism-based; details: time 30.0 min
Staphylococcus aureus [34] = test: Photodynamic antimicrobial activity against Staphylococcus aureus […] assessed as decrease in viable cell log count at 0.31 uM preincubated for 15 mins followed by light irradiation at 81 J/cm^2 dose for 15 mins and measured after 36 hrs; type: functional; details: time 36.5 hrs
Escherichia coli [35] = test: Photodynamic antimicrobial activity against Escherichia coli ATCC25922 assessed as bacterial clearance ratio at 1.25 uM preincubated for 15 mins in dark followed by irradiation with 54 J/cm^2 light for 10 mins and measured after 36 hrs; type: functional, ATCC 25922; details: time 2185 min, 36.42 h
Staphylococcus aureus [36] = test: In vivo antibacterial activity against Staphylococcus aureus ATCC29213 infected in Swiss albino mouse assessed as wound healing at 10 mg treated on day 2 post infection and followed by irradiation with 81 J/cm^2 light for 15 mins and measured every 3 days upto 8 days; type: functional, organism-based; details: time 8.0 day

## CC1=C(I)C(C)=[N+]2C1=C(c1cccc[n+]1C)c1c(C)c(I)c(C)n1[B-]2(F)F.[I-]
Staphylococcus aureus [1]
  MIC: 1.25 µM
Candida albicans [2]
  Drug uptake: 4%
Escherichia coli [3]
  log(activity): 5.26
Staphylococcus aureus [4]
  MIC: 10 µM
Escherichia coli [5]
  MIC: 1.25 µM
Escherichia coli [6]
  log(activity): 2.53
Candida albicans [7]
  MIC: 2.5 µM
[8]
  Drug uptake: 4%
[9]
  Drug uptake: 10%
Escherichia coli [10]
  log(activity): 6.62
Candida albicans [11]
  Activity: 77%
Escherichia coli [12]
  Activity: 99.3%
[13]
  logP at 20 h, 2 µM: 0.17
Staphylococcus aureus [14]
  Activity: 99.9%

## CC1=C(I)C(C)=[N+]2C1=C(c1cc[n+](C)cc1)c1c(C)c(I)c(C)n1[B-]2(F)F.[I-]
Staphylococcus aureus [1]
  MIC: 1.25 µM
Candida albicans [2]
  Drug uptake: 23%
Staphylococcus aureus [4]
  MIC: 2.5 µM
Escherichia coli [5]
  MIC: 1.25 µM
Candida albicans [7]
  MIC: 2.5 µM
[8]
  Drug uptake: 65%
Staphylococcus aureus [15]
  Activity: Active
[9]
  Drug uptake: 53%
Candida albicans [11]
  Activity: 77%
Escherichia coli [12]
  Activity: 99.4%
[13]
  logP at 20 h, 2 µM: 2.14
Staphylococcus aureus [14]
  Activity: Active

## CC1=C(I)C(C)=[N+]2C1=C(c1ccccn1)c1c(C)c(I)c(C)n1[B-]2(F)F
[13]
  logP at 20 h, 2 µM: > 4

## CC1=C(I)C(C)=[N+]2C1=C(c1cccnc1)c1c(C)c(I)c(C)n1[B-]2(F)F
[13]
  logP at 20 h, 2 µM: > 4

## CC1=C(I)C(C)=[N+]2C1=C(c1ccc[n+](C)c1)c1c(C)c(I)c(C)n1[B-]2(F)F.[I-]
Staphylococcus aureus [1]
  MIC: 0.63 µM
Candida albicans [2]
  Drug uptake: 9%
Escherichia coli [16]
  Activity: >99.9998%
Candida albicans [17]
  Activity: 98%
HaCaT [18]
  Activity: Non-Toxic
Staphylococcus aureus [4]
  MIC: 1.25 µM
Cell membrane [19]
  Activity: Active
Escherichia coli [20]
  Activity: inactive
Escherichia coli [5]
  MIC: 0.63 µM
Staphylococcus aureus [21]
  Activity: inactive
Staphylococcus aureus [22]
  log(activity): 7.05
Candida albicans [23]
  Activity: Active
Staphylococcus aureus [24]
  Activity: Active
HaCaT [25]
  IC50: 3.86 µM
Candida albicans [7]
  MIC: 0.63 µM
Escherichia coli [26]
  Activity: 99.23%
Cell membrane [27]
  Activity: Active
Candida albicans [28]
  Activity: 99.99%
[8]
  Drug uptake: 56%
[9]
  Drug uptake: 47%
Cell membrane [29]
  Activity: Active
Candida albicans [11]
  Activity: >99.9%
Staphylococcus aureus [30]
  log(activity): 3.8
Staphylococcus aureus [31]
  log(activity): >6.7
Escherichia coli [12]
  Activity: 99.9999%
[13]
  logP at 20 h, 2 µM: 1.44
Escherichia coli [32]
  Activity: >99.9998%
Candida albicans [33]
  Activity: inactive
Staphylococcus aureus [14]
  Activity: >99.9999%
Staphylococcus aureus [34]
  log(activity): 3.59
Escherichia coli [35]
  Activity: 99.97%
Staphylococcus aureus [36]
  Activity: Active

## CC1=C(I)C(C)=[N+]2C1=C(c1ccncc1)c1c(C)c(I)c(C)n1[B-]2(F)F
[13]
  logP at 20 h, 2 µM: > 4

## CC1=C(I)C(C)=[N+]2C1=C(c1ccc[n+](Cc3ccccc3)c1)c1c(C)c(I)c(C)n1[B-]2(F)F.[Br-]
Staphylococcus aureus [1]
  MIC: 0.63 µM
Candida albicans [2]
  Drug uptake: 25%
Staphylococcus aureus [4]
  MIC: 2.5 µM
Escherichia coli [5]
  MIC: 0.63 µM
Candida albicans [7]
  MIC: 1.25 µM
[8]
  Drug uptake: 80%
[9]
  Drug uptake: 68%
Candida albicans [11]
  Activity: Active
[13]
  logP at 20 h, 2 µM: > 4
Staphylococcus aureus [14]
  Activity: >99.9999%

## CCCCCCC[n+]1cccc(C2=C3C(C)=C(I)C(C)=[N+]3[B-](F)(F)n3c(C)c(I)c(C)c32)c1.[I-]
Staphylococcus aureus [1]
  MIC: 0.63 µM
Candida albicans [2]
  Drug uptake: 27%
Staphylococcus aureus [4]
  MIC: 2.5 µM
Escherichia coli [5]
  MIC: 0.63 µM
Candida albicans [7]
  MIC: 1.25 µM
[8]
  Drug uptake: 72%
[9]
  Drug uptake: 61%
Candida albicans [11]
  Activity: Active
[13]
  logP at 20 h, 2 µM: > 4
Staphylococcus aureus [14]
  Activity: >99.9999%
